Reference: article PMC2812605 (Biochemical pharmacology, 2009)

Molecular target: T1, P2Y14 receptor (Rattus norvegicus, UniProt O35881)
T1 sequence (O35881 1-305): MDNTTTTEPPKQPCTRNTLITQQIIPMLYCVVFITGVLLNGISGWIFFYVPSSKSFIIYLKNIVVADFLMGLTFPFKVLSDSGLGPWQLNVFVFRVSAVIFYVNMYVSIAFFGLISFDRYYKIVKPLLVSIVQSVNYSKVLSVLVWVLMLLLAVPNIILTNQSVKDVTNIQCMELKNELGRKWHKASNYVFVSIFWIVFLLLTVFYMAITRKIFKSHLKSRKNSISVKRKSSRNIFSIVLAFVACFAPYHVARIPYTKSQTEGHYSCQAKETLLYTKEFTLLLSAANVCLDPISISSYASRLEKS
Test: agonist-stimulated […]GTPγS binding to RBL-2H3 membranes
Type: biochemical

- EC50: 8.1 ± 1.6 nM
Structure (SMILES): O=c1ccn([C@@H]2O[C@H](COP(=O)(O)OP(=O)(O)O[C@H]3O[C@H](CO)[C@@H](O)[C@H](O)[C@H]3O)[C@@H](O)[C@H]2O)c(=S)[nH]1 [MRS2690, diphosphoric acid 1-α-D-glucopyranosyl ester 2-(2-thiouridin-5’’-yl) ester]
